Measurements published in EP2985032B1, “GLYX FOR USE IN THE TREATMENT OF ALZHEIMER'S DISEASE, PARKINSON'S DISEASE OR HUNTINGTON'S DISEASE” (Northwestern University, priority 2009, dated 2019).
No end group written: not given here.

Assays:
rats [1] = test: 50-kHz ultrasonic vocalizations model of positive affect (rough-and-tumble play); assay type: in vivo; settings: Example 8; 10 mg/kg i.v., 10-15 min before test; FBNF1 rats; Mean ± SEM; P < .01
From the text: To evaluate the hedonic effect of GLYX-13 in this study, the 50-kHz ultrasonic vocalizations model of positive affect was examined in rats (see, Burgdorf, J., Panksepp, J., Brudzynski, S.M., Kroes, R.A. & Moskal, J.R. (2008). The effect of selective breeding for differential rates of 50-kHz ultrasonic vocalizations on emotional behavior in rats. Devel. Psychobiology, 51, 34-46.).
As a part of the study, two groups of three month old FBNF1 rats were used. The first group was composed of 13 rats and the second group was composed of 11 rats. The first group of rats was intravenously injected with 10mg/kg GLYX-13 and the second group of rats was intravenously injected with PBS vehicle (1 ml/kg) in a blind manner via chronic […] femoral vein access ports. Both groups of rats were injected 10 to 15 minutes before the start of test.
For hedonic ultrasonic vocalizations (USVs), animals received 2 minutes of heterospecific RTP habituation before the final 2 minutes test session.

rats [2] = test: Open field test of anxiety; assay type: in vivo; settings: for increase in the amount of time spent in the center of the field compared to vehicle: Example 6, P < .05
Method: The purpose of this study was to evaluate action of GLYX-13 on anxiety. In order to gauge the effect of GLYX-13 in rats, the open field test of anxiety was conducted. The open field test is a widely used neophobic test of anxiety (see, Treit D, Fundytus M. Thigmotaxis as a test for anxiolytic activity in rats. Pharmachol Biochem Behav 1989;31:959-62.).
The open field area used for the open field test generally consists of an empty and bright square (or rectangular) arena, surrounded by walls. For the current study, an open field of 45 cm X 35 cm X 20 cm high was used. The rat was placed in the center of the arena and its behavior recorded over a predefined period of time (usually between 2 to 15 min). The open field test is based on the natural tendency of the rats to avoid open spaces. The open field test is based on the conflict between the innate anxiety that rats have of the central area of the open space versus their desire to explore new environments. When rats are in an anxious state, they have a natural tendency to stay near the walls. This natural tendency of the rats to stay close to the walls is called thigmotaxis. In this context, anxiety-related behavior is measured by the degree to which the rat avoids the center of the open field test. Determining the propensity of the rat to avoid the open field can be determined by measuring the number of center crosses made by the rats over a predefined interval of time, or by determining the amount of time the rat stays in the center of the field.
In order to evaluate the effectiveness of GLYX-13 as an anxiolytic, two groups of three month old FBNF1 rats were used. The first group was composed of 13 rats and the second group was composed of 11 rats. The first group of rats was intravenously injected with 10 mg/kg GLYX-13 and the second group of rats was intravenously injected with PBS vehicle (1 ml/kg) in a blind manner via chronic […] femoral vein access ports. Both groups of rats were injected 10 to 15 minutes before the start of testing. After GLYX-13 injections, both groups of rats were tested in the open field.
For the open field test, rats were habituated to the open field for 2 minutes each day for three consecutive days before the final 2 minute test session in which GLYX-13 or vehicle was administered. Open field activity was recorded by a video camera mounted above the open field area, and number of center crosses in the open field was measured.
A second experiment was performed in the same manner as Example 3, except that groups of 8-10 two- to three-month old male Sprague-Dawley rats pretreated with either intravenous (1, 3, 10, 32 mg / kg), subcutaneous (1, 3, 10, 32, 56, 100 mg / kg) injections of GLYX-13, ketamine (10 mg/kg i.p.) or saline vehicle (1 mg / ml) 15 min (i.v.), 20 (s.c.) or 60 (i.p.) min before the start of the 5 min test session. Each data point represents a group of 8-10 rats. The average (mean) amount of time animals spent in the center of the field was measured.
To evaluate whether the anti-depressive and anxiolytic effects of GLYX-13 would persist beyond a few hours, rats were tested in the Porsot test and the Open Field test, described above. […] Mean (± SEM) time (sec.) spent floating in the Porsolt test, time spent in the center compartment (sec.), and line crosses in the open field test were determined.

rats [3] = test: Porsolt test (Forced Swim Test) of depression; assay type: in vivo; set-up: Mean Immobility Time: unit not given beside the values; settings: for maximum reduction in floating compared to saline vehicle / Mean Immobility Time: Example 2; for maximum reduction in floating compared to saline vehicle: P < .01
Method: For the evaluation of the antidepressant actions of GLYX-13, the effect of GLYX-13 in the Porsolt test of depression was examined in rats. Porsolt testing is the most commonly used test for assessment of depression in animal model. Porsolt testing, also known as Forced Swim Test, is based on a behavioral trait that is sensitive to changes in affective state. During this test, the animal is placed in a tank (18 cm diameter x 45 cm height) filled to 30 cm with 22-23°C water. After placing the animal in the tank, the amount of time for which the rat is immobile when it stops struggling is measured. Porsolt test is based on the fact that antidepressants increase the latency to immobility and decrease the time for which the rat is immobile. […] The interpretation of the Porsolt test is that the antidepressants reinstate active coping mechanisms and decrease the passive immobility evoked by stress.
In order to evaluate the effectiveness of GLYX-13 as antidepressant, three month old FBNF1 rats were separated into two groups of 9 animals. The first group of rats was intravenously injected with 10 mg/kg GLYX-13 and the second group of animals was intravenously injected with PBS vehicle (1 ml/kg) in a blind manner via chronic subdural femoral vein access ports. Both groups of animals were injected 10 to 15 minutes before the start of testing.
For Porsolt testing, animals were given a 15 minute pre-test habituation in the tank to induce learned helplessness on day one. Following this, on the subsequent day, the animals were injected with GLYX-13 or vehicle 10-15 minutes before being placed into the tank for a 5 minute test session. After placing the animals in the tank, the amount of time for which each animal is immobile when it stops struggling (Mean Immobility Time) was measured. Decrease in Mean Immobility Time is a measure of the effectiveness of the antidepressant.
A second experiment was performed in the same manner as Example 1, except that 2-3 month Sprague-Dawley rats were used, and treated with either intravenous (1, 3, 10, 32 mg / kg), subcutaneous (1,3, 10, 32, 56, 100 mg / kg) injections of GLYX-13 or saline vehicle (1 mg / ml) 15 (i.v.) or 20 (s.c.) min before the start of the final 5 min test session. Ketamine (10 mg / kg i.p.) was given 60 min before the start of testing (Garcia et al., (2008) Prog Neuropsychopharmacol Biol Psychiatry, 32, 140-144). Subcutaneous administration of 10 mg/kg ketamine followed by testing after 20 min post dosing produced severe dissociative side effects, as shown in Figure 3.
To determine whether GLYX-13 acts in an area of the brain that is clinically relevant for depression, GLYX-13 was administered to either the medial prefrontal cortex (MPFC), which is associated with mood and depression, or to the motor cortex (Fig. 4). Mean time spent immobile in the Porsolt test was determined for groups of 10 three-month old male Fisher Brown Norway F1 (FBNF1) rats pretreated with a single injection of GLYX-13 (1, 10 ug / side) or a single saline vehicle injection (0.5 ul / 1 min) bilaterally into the medial prefrontal cortex or motor cortex (dorsal control) in animals with surgically implanted chronic indwelling cannulae aimed at the MPFC. Microinjections were made 1 week after surgery, and Porsolt testing was conducted 20 min post injection. Animals received a single 15 min training swim session one day before dosing.
To determine whether the antidepressant effect of GLYX-13 was specific to the sequence of the GLXY-13 peptide, mean time (sec) spent floating in the Porsolt test was determined in groups of 12 three-month old Sprague Dawley rats administered with GLYX-13 (TPPT-NH2; 3 mg / kg, i.v. tail vein), a scrambled peptide ([…]; 3 mg / kg i.v. tail vein), or 0.9% saline vehicle (1 ml / kg, i.v. tail vein). Administration occurred 60 min before the 5 min. testing session. Animals received a 15 min. training swim session one day before dosing. […]

[4] = test system: rat hippocampal organotypic cultures; test: LTP / LTD in hippocampal organotypic cultures; assay type: cell-based; settings: in vitro
rats [5] = test: Porsolt test (Forced Swim Test) of depression; assay type: in vivo; set-up: Mean Immobility Time: unit not given beside the values
[6] = Example 7, 3 mg / kg i.v., Sprague-Dawley rats

Substance: L-threonyl-L-prolyl-L-prolyl-L-threonine amide (TPPT-NH2) [GLYX-13, NMDAR glycine-site partial agonist]
- increase in rates of play-induced positive affective 50-kHz USVs compared to vehicle (rats [1]): 178.5 ± 48.3%
- increase in center crosses compared to vehicle (rats [2]; Example 5, 10 mg/kg i.v., 10-15 min before test, FBNF1 rats, Mean ± SEM, P < .005): 172.6 ± 34.3%
- increase in the amount of time spent in the center of the field compared to vehicle (rats [2]; intravenous administration, 15 min before test, Sprague-Dawley rats, Mean ± SEM): 42± 5%
- increase in the amount of time spent in the center of the field compared to vehicle (rats [2]; subcutaneous administration, 20 min before test, Sprague-Dawley rats, Mean ± SEM): 36 ± 5%
- increase in mean center time compared to saline control (rats [2]; Example 7, 3 mg / kg i.v., tested 120 hrs post dosing, Sprague-Dawley rats, mean ± SEM): 125% ± 5
- duration of anxiolytic effects of a single administration (rats [2]; [6]): up to 5 days
- reduction in floating compared to PBS vehicle (rats [3]; Example 1, 10 mg/kg i.v., 10-15 min before test, three month old FBNF1 rats, Mean ± SEM, P < .0001): 56.4 ± 4.6%
- maximum reduction in floating compared to saline vehicle (rats [3]; administered intravenously, Sprague-Dawley rats, Mean ± SEM): 50 ± 10%
- maximum reduction in floating compared to saline vehicle (rats [3]; administered subcutaneously, Sprague-Dawley rats, Mean ± SEM): 43 ± 7%
- Mean Immobility Time (rats [3]; i.v., dose 3 (mg/kg), 15 min before test, Sprague-Dawley rats): 66.14 ±27.53
- Mean Immobility Time (rats [3]; i.v., dose 10 (mg/kg), 15 min before test, Sprague-Dawley rats): 60.6 ±14.7
- Mean Immobility Time (rats [3]; i.v., dose 32 (mg/kg), 15 min before test, Sprague-Dawley rats): 87.19±17.85
- Mean Immobility Time (rats [3]; s.c., dose 1 (mg/kg), 20 min before test, Sprague-Dawley rats): 135.5 ±22.0
- Mean Immobility Time (rats [3]; s.c., dose 3 (mg/kg), 20 min before test, Sprague-Dawley rats): 100.2 ±15.7
- Mean Immobility Time (rats [3]; s.c., dose 10 (mg/kg), 20 min before test, Sprague-Dawley rats): 76.9 ±9.7
- Mean time spent immobile (rats [3]; Example 3, MPFC injection, dose 1 (ug / side), FBNF1 rats, Mean ± SEM): 53.46 ±10.65
- Mean time spent immobile (rats [3]; Example 3, MPFC injection, dose 10 (ug / side), FBNF1 rats, Mean ± SEM): 62.54±8.7
- reduction in floating compared to a saline control or to GLYX-13 injected into motor cortex (rats [3]; Example 3, injected bilaterally into the MPFC, FBNF1 rats, 20 min post injection, Mean ± SEM): 50 ± 5%
- Mean time spent immobile (rats [3]; Example 3, injected into motor cortex (dorsal control), FBNF1 rats, Mean ± SEM): 113.7 ±13.1
- reduction in mean floating time compared to saline injection or scrambled peptide (rats [3]; Example 4, 3 mg / kg i.v. tail vein, 60 min before test, Sprague Dawley rats, Mean ± SEM): 70 ± 5%
- reduction in mean floating time compared to saline control (rats [3]; Example 7, 3 mg / kg i.v., tested 96 hrs post dosing, Sprague-Dawley rats, mean ± SEM): 82% ± 2
- duration of antidepressant effects of a single administration (rats [3]; [6]): up to 4 days
- onset of action (rats [3]; single dose, rats): within minutes
- long-term depression (LTD) [4]: reducing
- long-term potentiation (LTP) [4]: markedly elevate
- Mean Immobility Time (rats [5]; Example 2, i.v., dose printed as 2, 15 min before test, Sprague-Dawley rats): 84.9 ±15.0
- Mean time spent immobile (rats [5]; Example 3, MPFC injection, dose 0.1 (ug / side), FBNF1 rats, Mean ± SEM): 108.77 ±12.34
